Some test systems named below: COLO 205 colon; HCT-15 colon; SF-539 CNS; MALME-3M melanoma; SR leukemia; T-47D breast; SK-MEL-28 melanoma; A549 NSCLC; SK-OV-3 ovarian; HOP-62 NSCLC; KM12 colon; UACC-257 melanoma.
Common to all, as to assay: NCI-60 cell line screen, 48 h

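Each compound was tested at five concentrations against cells in 96-well plates for 48 hours. TGI: total growth inhibition.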 Some results are limits rather than exact numbers.

As for `COC(=O)CCC1=C(CC(=O)OC)C(C)(OC)N=C1NC(=O)OCc1ccccc1` (configuration not stated), the TGI in the experiment on COLO 205 colon, in the experiment on HCT-15 colon, with SF-539 CNS, with MALME-3M melanoma, in the experiment on SR leukemia and in the experiment on T-47D breast was over 100 µM in each case. Further, the TGI with SK-MEL-28 melanoma, in the experiment on A549 NSCLC, with SK-OV-3 ovarian, in the experiment with HOP-62 NSCLC, in the experiment with KM12 colon and in the experiment with UACC-257 melanoma was over 100 µM each time.

As to `CN1CN(c2ccccc2)C2(CCN(CC(C)(c3ccc(F)cc3)C3OCCCO3)CC2)C1=O` (configuration not stated), the TGI with COLO 205 colon came out at 44.3 µM; in the experiment on HCT-15 colon, 33.9 µM; in the experiment on SF-539 CNS, 26.5 µM; with MALME-3M melanoma it was 30 µM; in the experiment with SR leukemia, 30.4 µM; in the experiment with T-47D breast it was 56.2 µM. Besides, the TGI in the experiment with SK-MEL-28 melanoma stood at 34.6 µM; with A549 NSCLC, 61.9 µM; with SK-OV-3 ovarian, 67.1 µM; in the experiment on HOP-62 NSCLC it was 30.7 µM; with KM12 colon, 31.1 µM; in the experiment with UACC-257 melanoma it was 31.5 µM.

As to `Cc1ccccc1OC(C)C(=O)NN1C(=O)CSC1c1ccc(Cl)cc1` (configuration not stated), the TGI in the experiment on COLO 205 colon was over 100 µM; in the experiment on HCT-15 colon, over 100 µM; in the experiment on SF-539 CNS, over 63.1 µM; in the experiment with MALME-3M melanoma, over 100 µM; in the experiment on SR leukemia it was over 46.3 µM; in the experiment on T-47D breast, over 100 µM. For the same compound, the TGI was over 100 µM with SK-MEL-28 melanoma; over 100 µM in the experiment on A549 NSCLC; over 92.5 µM with SK-OV-3 ovarian; 51.2 µM in the experiment with HOP-62 NSCLC; over 100 µM in the experiment on KM12 colon; over 100 µM with UACC-257 melanoma.

Consider `Cc1nc(C)c(N2CCN(S(=O)(=O)N(Cc3ccccc3)Cc3ccccc3)CC2)c(=O)[nH]1`, for which the TGI with COLO 205 colon is over 100 µM; in the experiment on HCT-15 colon, over 100 µM; with SF-539 CNS, 42.5 µM; with MALME-3M melanoma it was over 100 µM; in the experiment on SR leukemia it was over 100 µM; in the experiment on T-47D breast, over 85.7 µM. Besides, the TGI with SK-MEL-28 melanoma was over 100 µM; in the experiment on A549 NSCLC, over 100 µM; in the experiment on SK-OV-3 ovarian, over 54.2 µM; in the experiment on HOP-62 NSCLC, 37.9 µM; with KM12 colon it was over 100 µM; in the experiment with UACC-257 melanoma it was over 100 µM.

Consider `COc1ccc2nc(-c3ccccc3)cc(OCC(=O)O)c2c1`, for which the TGI in the experiment with COLO 205 colon, in the experiment with HCT-15 colon, with SF-539 CNS, with MALME-3M melanoma, in the experiment on SR leukemia and with T-47D breast was over 100 µM in each case. Also, the TGI in the experiment with SK-MEL-28 melanoma, in the experiment with A549 NSCLC, in the experiment on SK-OV-3 ovarian, in the experiment with HOP-62 NSCLC, with KM12 colon and in the experiment on UACC-257 melanoma was over 100 µM throughout.

Consider `CC[C@@]1(O)C(=O)OCc2c1cc1n(c2=O)Cc2c-1nc1ccccc1c2/C=N\NC(=O)C1CCCN1` (some centres not stated), for which the TGI in the experiment with COLO 205 colon was over 100 µM; with HCT-15 colon, over 61.9 µM; with SF-539 CNS it was 0.318 µM; in the experiment on MALME-3M melanoma it was over 89.4 µM; in the experiment on SR leukemia, 1.73 µM; in the experiment with T-47D breast, over 100 µM. The TGI with SK-MEL-28 melanoma is over 100 µM; in the experiment with A549 NSCLC, over 100 µM; in the experiment with SK-OV-3 ovarian, over 100 µM; with HOP-62 NSCLC, 2.16 µM; in the experiment on KM12 colon, over 44.6 µM; in the experiment with UACC-257 melanoma, over 95.4 µM.

The values are drawn from PubChem BioAssay (NCI).
